Here are results for 6 compounds from ChEMBL document CHEMBL5465560, “Selectivity Literature for EUbOPEN Chemogenomic Library” (2024).

For test [1], the target named is T1, Ephrin type-B receptor 4 (Homo sapiens) (UniProt P54760).
T1 sequence (whole entry): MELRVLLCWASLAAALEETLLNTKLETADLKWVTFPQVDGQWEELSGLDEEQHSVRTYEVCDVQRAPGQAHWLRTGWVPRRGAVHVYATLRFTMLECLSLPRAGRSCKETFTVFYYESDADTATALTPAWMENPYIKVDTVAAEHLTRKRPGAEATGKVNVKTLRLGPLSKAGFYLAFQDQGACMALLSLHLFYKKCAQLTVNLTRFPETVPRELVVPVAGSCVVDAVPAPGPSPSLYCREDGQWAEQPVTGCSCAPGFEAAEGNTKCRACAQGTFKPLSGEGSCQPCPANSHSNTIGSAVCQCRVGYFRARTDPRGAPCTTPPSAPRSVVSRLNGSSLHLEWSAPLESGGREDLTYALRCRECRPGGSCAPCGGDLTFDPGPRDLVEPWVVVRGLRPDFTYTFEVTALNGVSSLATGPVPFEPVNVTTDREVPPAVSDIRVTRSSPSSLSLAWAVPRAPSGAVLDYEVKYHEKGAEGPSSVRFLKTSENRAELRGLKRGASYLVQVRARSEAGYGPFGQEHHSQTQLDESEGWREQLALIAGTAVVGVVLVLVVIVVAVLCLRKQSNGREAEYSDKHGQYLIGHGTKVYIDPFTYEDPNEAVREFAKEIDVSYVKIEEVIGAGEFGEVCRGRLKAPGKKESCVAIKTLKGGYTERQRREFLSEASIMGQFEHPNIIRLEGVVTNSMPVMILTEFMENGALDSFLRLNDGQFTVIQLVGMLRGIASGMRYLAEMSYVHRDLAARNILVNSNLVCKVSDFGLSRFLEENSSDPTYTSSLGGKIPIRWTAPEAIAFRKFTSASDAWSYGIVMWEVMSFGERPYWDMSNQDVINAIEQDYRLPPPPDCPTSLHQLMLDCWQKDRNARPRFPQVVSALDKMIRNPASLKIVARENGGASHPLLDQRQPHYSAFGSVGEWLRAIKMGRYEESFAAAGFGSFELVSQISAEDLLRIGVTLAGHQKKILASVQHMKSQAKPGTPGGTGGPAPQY
The experiment in a line: Selectivity interaction (Kinase panel (Z-LYTE Assay)) EUB0001632a EPHB4. The conditions noted are these: at 10 µM.

Test [2] concerns the target T2, Mitogen-activated protein kinase kinase kinase kinase 2 (Homo sapiens) (UniProt Q12851).
T2 sequence (whole entry): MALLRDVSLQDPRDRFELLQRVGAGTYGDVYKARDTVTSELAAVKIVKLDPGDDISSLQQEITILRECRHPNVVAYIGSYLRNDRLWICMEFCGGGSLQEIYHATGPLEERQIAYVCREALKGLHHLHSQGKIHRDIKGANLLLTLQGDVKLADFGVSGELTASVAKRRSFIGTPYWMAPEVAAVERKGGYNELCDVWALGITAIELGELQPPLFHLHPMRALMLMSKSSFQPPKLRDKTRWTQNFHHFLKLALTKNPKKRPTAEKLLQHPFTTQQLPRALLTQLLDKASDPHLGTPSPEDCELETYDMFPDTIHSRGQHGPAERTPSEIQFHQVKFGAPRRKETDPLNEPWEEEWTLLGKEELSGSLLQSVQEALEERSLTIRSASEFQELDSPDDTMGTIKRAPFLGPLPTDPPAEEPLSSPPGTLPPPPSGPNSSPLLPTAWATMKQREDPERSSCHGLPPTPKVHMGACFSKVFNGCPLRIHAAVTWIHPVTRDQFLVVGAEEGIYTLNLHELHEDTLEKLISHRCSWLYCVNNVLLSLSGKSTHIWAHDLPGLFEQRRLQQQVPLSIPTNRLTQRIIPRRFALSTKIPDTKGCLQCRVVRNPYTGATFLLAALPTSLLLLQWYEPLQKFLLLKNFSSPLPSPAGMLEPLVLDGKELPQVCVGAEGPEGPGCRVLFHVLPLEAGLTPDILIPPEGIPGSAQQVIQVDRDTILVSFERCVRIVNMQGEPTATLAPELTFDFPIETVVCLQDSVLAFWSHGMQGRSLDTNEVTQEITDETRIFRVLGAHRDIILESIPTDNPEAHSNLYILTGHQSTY
The experiment in a line: Selectivity interaction (Kinase panel (KiNativ target engagement assay in Jurkat cells)) EUB0001635a MAP4K2. In kind it is cell-based. The conditions noted are these: Selectivity number of off-targets 0.0, Selectivity number of targets 233.0, Source Knowledge https://www.sciencedirect.com/science/article/pii/S2451945619300674?via%3Dihub, at 1 µM.

Test [3] has as its system Epidermal growth factor receptor (Homo sapiens), P00533 [UNDEFINED MUTATION]. The experiment in a line: Selectivity interaction (Ambit KINOMEscan and KiNATiv profiling in Jurkat cells) EUB0000090b EGFR. It is filed as cell-based. The following applies: at 1 µM.
The target in test [4] is Receptor tyrosine-protein kinase erbB-2 (Homo sapiens, UniProt P04626). Briefly: Selectivity interaction (SelectScreen profiling (Invitrogen)) EUB0000607a ERBB2. The following applies: at 2 µM.
For test [5], the target named is Macrophage-stimulating protein receptor (Homo sapiens, UniProt Q04912). Briefly: Selectivity interaction (KinomeScan (DiscoverX)) EUB0000607a MST1R. The conditions noted are these: at 10 µM.
Test [6] deals with Mitogen-activated protein kinase 11 (Homo sapiens) (UniProt Q15759). Briefly: Selectivity interaction (Kinase panel (Invitrogen)) EUB0000639a MAPK11. The conditions noted are these: at 200 nM.
Test [7] concerns the target T3, Serine/threonine-protein kinase Nek11 (Homo sapiens) (UniProt Q8NG66).
T3 sequence (whole entry): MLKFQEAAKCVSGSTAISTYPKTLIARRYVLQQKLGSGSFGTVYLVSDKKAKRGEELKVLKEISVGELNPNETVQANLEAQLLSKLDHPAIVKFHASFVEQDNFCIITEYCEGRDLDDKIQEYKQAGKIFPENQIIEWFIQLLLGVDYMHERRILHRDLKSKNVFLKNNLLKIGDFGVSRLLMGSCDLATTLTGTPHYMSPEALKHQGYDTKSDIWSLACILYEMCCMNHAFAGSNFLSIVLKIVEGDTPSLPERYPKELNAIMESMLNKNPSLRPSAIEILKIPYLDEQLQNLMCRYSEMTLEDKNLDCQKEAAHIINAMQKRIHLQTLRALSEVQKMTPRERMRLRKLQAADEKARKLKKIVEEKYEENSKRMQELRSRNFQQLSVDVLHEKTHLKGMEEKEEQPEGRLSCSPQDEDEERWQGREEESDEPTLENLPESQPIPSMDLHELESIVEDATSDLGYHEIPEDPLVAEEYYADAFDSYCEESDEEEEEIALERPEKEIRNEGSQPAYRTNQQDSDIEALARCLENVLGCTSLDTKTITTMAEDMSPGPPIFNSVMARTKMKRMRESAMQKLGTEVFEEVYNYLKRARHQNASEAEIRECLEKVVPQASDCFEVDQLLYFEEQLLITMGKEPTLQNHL
Briefly: Selectivity interaction (Upstate Kinase Profiler service (Millipore)) EUB0000056c NEK11. The following applies: at 1 µM.

Chain of Macrophage-stimulating protein receptor (Q04912 25-304 limits assumed): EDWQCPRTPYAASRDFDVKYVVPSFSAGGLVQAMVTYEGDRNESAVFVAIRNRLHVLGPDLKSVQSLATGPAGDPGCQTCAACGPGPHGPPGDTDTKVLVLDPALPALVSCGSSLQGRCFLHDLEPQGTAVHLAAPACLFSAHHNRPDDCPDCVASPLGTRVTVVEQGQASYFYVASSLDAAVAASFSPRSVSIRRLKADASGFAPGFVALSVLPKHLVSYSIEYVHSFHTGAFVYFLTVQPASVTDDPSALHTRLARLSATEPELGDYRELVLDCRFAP
Chain of Macrophage-stimulating protein receptor (Q04912 310-1400 limits assumed): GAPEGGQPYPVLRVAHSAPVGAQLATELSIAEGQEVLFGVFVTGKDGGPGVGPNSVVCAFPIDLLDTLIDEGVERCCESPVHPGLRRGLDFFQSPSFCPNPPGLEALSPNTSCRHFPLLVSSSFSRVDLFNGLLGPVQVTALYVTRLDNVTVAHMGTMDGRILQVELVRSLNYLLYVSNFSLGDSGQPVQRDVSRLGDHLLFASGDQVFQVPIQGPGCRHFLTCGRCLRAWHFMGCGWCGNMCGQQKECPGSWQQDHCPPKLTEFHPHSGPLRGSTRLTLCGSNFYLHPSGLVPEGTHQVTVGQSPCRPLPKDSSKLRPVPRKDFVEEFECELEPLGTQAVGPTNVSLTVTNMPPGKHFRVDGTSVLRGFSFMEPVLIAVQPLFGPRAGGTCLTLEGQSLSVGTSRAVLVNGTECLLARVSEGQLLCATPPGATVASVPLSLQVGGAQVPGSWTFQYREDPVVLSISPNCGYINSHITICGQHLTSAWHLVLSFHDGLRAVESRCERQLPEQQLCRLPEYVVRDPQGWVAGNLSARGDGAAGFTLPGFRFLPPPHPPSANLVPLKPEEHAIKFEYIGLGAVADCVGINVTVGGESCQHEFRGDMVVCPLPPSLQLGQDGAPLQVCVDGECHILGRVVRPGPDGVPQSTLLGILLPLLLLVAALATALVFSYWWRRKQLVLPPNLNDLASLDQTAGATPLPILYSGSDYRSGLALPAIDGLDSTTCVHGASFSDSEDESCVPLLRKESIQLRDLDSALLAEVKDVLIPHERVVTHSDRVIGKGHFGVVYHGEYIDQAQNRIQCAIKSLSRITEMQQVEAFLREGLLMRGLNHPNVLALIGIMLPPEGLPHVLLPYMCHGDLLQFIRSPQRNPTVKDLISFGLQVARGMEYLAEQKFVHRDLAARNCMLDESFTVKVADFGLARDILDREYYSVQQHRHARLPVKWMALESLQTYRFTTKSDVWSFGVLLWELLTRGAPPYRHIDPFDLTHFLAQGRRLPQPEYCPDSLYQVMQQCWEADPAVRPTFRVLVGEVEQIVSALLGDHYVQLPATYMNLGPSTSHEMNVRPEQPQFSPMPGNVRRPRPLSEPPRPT
Chain of Mitogen-activated protein kinase 11 (Homo sapiens) (Q15759 whole entry): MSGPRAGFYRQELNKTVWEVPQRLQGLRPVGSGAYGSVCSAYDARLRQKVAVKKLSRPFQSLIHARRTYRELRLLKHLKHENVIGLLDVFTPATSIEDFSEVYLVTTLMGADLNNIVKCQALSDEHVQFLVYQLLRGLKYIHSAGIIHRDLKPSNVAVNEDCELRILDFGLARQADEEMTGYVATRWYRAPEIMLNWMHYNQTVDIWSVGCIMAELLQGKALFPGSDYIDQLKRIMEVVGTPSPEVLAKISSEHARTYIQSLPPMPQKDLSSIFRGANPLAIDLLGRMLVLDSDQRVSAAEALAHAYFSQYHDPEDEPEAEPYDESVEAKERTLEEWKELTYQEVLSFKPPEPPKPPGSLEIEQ
Chain of Receptor tyrosine-protein kinase erbB-2 (P04626 whole entry): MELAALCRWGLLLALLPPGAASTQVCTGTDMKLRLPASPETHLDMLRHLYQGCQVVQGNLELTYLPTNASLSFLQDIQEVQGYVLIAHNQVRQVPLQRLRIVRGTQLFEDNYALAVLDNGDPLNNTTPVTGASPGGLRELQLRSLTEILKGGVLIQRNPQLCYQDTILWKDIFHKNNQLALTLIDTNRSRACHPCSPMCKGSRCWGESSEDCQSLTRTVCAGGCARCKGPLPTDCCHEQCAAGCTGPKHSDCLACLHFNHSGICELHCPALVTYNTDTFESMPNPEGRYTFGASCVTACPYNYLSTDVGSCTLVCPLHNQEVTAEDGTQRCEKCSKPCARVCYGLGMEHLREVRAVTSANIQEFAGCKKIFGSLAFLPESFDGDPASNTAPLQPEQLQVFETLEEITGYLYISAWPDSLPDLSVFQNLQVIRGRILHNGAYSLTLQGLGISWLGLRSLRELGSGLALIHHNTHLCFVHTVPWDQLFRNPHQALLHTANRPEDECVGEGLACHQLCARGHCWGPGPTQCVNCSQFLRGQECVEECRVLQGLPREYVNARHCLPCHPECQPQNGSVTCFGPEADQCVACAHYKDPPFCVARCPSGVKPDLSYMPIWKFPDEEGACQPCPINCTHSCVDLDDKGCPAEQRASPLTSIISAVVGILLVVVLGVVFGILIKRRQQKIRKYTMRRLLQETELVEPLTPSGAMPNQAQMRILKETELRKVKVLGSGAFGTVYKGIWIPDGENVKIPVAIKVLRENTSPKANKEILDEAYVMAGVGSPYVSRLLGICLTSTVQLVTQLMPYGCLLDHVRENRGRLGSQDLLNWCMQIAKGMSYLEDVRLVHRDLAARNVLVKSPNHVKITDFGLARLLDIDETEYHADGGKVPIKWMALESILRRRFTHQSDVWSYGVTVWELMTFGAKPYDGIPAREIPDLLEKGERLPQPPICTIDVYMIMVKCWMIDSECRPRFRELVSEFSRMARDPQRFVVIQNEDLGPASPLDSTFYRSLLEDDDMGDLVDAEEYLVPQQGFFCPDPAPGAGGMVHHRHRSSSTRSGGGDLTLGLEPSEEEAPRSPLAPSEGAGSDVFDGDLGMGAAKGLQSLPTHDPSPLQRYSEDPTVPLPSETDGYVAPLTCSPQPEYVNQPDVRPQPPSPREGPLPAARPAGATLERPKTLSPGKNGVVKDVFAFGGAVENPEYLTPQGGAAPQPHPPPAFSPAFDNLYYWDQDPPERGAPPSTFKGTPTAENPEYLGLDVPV
Chain of Epidermal growth factor receptor (Homo sapiens), P00533 [UNDEFINED MUTATION] (P00533 whole entry, looked up, change not shown): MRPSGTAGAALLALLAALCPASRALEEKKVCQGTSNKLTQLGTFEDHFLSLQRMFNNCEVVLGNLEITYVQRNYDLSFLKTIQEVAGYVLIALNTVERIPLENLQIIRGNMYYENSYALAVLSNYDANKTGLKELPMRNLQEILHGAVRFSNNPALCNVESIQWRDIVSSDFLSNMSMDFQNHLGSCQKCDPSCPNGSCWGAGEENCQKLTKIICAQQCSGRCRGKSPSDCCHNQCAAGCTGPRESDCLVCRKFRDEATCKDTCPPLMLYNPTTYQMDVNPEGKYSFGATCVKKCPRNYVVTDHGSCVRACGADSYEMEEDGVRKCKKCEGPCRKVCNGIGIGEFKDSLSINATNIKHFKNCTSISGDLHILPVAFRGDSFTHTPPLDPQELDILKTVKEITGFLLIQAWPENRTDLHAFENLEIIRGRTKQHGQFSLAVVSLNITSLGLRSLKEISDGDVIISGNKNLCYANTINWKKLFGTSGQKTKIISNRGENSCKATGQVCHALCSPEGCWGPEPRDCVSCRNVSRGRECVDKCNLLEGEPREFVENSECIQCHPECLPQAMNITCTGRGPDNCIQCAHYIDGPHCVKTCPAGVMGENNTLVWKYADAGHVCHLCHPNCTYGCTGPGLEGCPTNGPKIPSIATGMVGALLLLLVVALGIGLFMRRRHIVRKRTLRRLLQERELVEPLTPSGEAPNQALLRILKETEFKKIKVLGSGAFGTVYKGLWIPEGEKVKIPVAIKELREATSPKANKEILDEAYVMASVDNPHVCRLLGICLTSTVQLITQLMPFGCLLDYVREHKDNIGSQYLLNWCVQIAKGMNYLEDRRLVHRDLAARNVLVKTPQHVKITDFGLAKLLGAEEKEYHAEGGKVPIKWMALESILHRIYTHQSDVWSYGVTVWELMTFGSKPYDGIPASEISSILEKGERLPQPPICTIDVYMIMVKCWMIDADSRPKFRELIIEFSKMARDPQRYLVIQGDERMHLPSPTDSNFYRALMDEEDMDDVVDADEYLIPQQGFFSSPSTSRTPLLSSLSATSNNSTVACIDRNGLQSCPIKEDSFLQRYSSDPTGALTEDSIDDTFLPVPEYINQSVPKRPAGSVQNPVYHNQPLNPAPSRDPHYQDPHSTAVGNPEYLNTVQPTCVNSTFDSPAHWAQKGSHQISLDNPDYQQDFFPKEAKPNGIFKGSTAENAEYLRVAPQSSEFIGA

Consider `Cn1cc(-n2cnc3c(NCc4nc5cc(Cl)c(Cl)cc5[nH]4)nc(N4CCOCC4)nc32)cn1`, for which, in test [1], the % of control is -10.1%.
On to `C=CC(=O)Nc1ccc(C(=O)Nc2[nH]nc3c2CN(C(=O)N[C@H](CN(C)C)c2ccccc2)C3(C)C)cc1`, for which the % of engagement in test [2] was -14.9%.
Regarding `CN(C)C/C=C/C(=O)Nc1ccc(C(=O)N2CCCC(Nc3ncc(Cl)c(-c4c[nH]c5ccccc45)n3)C2)cc1` (configuration not stated), the % of control in test [3] came to 77%.
For the compound `CNC(=O)Nc1ccc(-c2nc(N3CC4CCC(C3)O4)c3cnn(C4CCC5(CC4)OCCO5)c3n2)cc1`, the % of inhibition in test [4] worked out at 0%. Besides, in test [5], the % of control is 100%.
`CC[C@@H]1[C@H](F)C(=O)N[C@@H]1COc1nccc2cc(C(N)=O)c(OC)cc12` [ZIMLOVISERTIB]: the % of inhibition in test [6] was found to be 5.62%.
For `Cc1ccc(-c2ccc3c(ccc4sc5c(c43)NC[C@@H](C)NC5=O)n2)cn1`, in test [7], the % of inhibition is -11%.
